Changes are numbered by the printed parent chain. Read-outs that look alike come from different tables or passages of the source.
Columns and labels:
[1] = Microsomal stability, human microsomes; format: in vitro ADME; settings: liver microsomes; for half-life at 5 μM: 0.5 mg/mL human microsomes, up to 45 min, read-out: Microsomal stability, t1/2 (min), human; for microsomal CLint at 5 μM: human microsomes, read-out: Microsomal clearance CLint (μl/min/mg), human
Protocol: (§1) The protocols and reagents for the plasma protein binding assay and metabolic stability testing in human and mouse liver microsomes are detailed in our previous report. […] The stability of compounds was tested in human and mouse microsomes (ThermoFisher Scientific). Compounds were tested in triplicate with or without NADPH wells as a negative control for cytochrome P450 metabolism. […] Each assay included a substrate with known activity as a positive control. Time points were analyzed by LC/MS/MS. The peak area for the parent compound is compared to the time zero sample in order to assess the amount of remaining compound.

[2] = Microsomal stability, mouse microsomes; format: in vitro ADME; settings: liver microsomes; for half-life at 5 μM: 0.5 mg/mL mouse microsomes, up to 45 min, read-out: Microsomal stability, t1/2 (min), mouse
Protocol: as §1

[3] = Plasma stability, human plasma; format: in vitro ADME; settings: up to 120 min, read-out: Plasma stability, t1/2 (min), human
PXR [4] = target: T1, PXR (Homo sapiens, UniProt O75469); experiment: cell-based; settings: PXR antagonism: PXR inhibition (IC50, μM), antagonist mode with 10 μM rifampicin; mean ± SD, n = 3
T1 sequence (O75469 1-434): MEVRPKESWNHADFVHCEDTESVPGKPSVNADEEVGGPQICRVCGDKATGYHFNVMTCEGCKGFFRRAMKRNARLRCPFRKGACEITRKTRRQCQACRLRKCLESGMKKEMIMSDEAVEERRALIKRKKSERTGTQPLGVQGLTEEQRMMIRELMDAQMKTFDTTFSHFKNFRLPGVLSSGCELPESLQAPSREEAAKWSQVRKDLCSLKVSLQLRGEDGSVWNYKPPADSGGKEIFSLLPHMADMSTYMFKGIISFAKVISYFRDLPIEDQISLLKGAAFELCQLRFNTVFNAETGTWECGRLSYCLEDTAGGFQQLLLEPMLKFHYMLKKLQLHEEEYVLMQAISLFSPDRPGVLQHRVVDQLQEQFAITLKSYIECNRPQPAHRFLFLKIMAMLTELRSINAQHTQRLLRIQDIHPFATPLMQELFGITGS

human CAR LBD [5] = target: T2, human CAR LBD (Homo sapiens, UniProt Q14994); experiment: CAR LBD assembly assay (CAR AA); format: cell-based; settings: na = no activity; tox = cytotoxicity in HepG2 cells
T2 construct: constructs encoding helices 3–12 and helix 1 of human CAR LBD; expressed in transfected cells; host or cells: HepG2
T2 sequence (Q14994 103-150 isoform Q14994-2 limits assumed): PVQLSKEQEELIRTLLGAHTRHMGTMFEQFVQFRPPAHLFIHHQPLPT
T2 sequence (Q14994 151-348 isoform Q14994-2 limits assumed): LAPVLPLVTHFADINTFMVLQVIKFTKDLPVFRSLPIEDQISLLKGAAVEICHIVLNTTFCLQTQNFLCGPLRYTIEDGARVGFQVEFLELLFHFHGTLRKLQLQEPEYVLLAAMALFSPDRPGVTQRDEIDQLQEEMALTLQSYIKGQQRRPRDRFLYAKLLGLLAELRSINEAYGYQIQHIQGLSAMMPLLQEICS
Text: The CAR LBD assembly assay used constructs encoding helices 3–12 and helix 1 of human CAR LBD as described before. GL4.31[luc2P/GAL4UAS/Hygro] (pGAL4 UAS-luc) luciferase reporter vector and pRL-TK Renilla expression vector (Promega) were used in the assay in HepG2 cells transfected using Lipofectamine 3000.

[6] = Plasma stability, mouse plasma; format: in vitro ADME; settings: up to 120 min, read-out: Plasma stability, t1/2 (min), mouse
Protocol: The protocols and reagents for the plasma protein binding assay and metabolic stability testing in human and mouse liver microsomes are detailed in our previous report. Briefly, metabolic stability of compounds was assessed at a single concentration (5 μM) at t = 0, 10, 30, and at t = 45 min. The stability of compounds was tested in human and mouse microsomes (ThermoFisher Scientific). Compounds were tested in triplicate with or without NADPH wells as a negative control for cytochrome P450 metabolism. In addition to hepatic metabolism, compounds were also subjected to degradation/modification by enzymes in human (VWR International) and mouse (Biomedica, CZ) plasma for t = 0, 30, 60, and at t = 120 min. Each assay included a substrate with known activity as a positive control. Time points were analyzed by LC/MS/MS. The peak area for the parent compound is compared to the time zero sample in order to assess the amount of remaining compound.

human CAR LBD [7] = target: T3, human CAR LBD (Homo sapiens, UniProt Q14994); experiment: LanthaScreen TR-FRET CAR Coactivator assay; format: biochemical; settings: nb = no binding
T3 sequence (Q14994 103-352): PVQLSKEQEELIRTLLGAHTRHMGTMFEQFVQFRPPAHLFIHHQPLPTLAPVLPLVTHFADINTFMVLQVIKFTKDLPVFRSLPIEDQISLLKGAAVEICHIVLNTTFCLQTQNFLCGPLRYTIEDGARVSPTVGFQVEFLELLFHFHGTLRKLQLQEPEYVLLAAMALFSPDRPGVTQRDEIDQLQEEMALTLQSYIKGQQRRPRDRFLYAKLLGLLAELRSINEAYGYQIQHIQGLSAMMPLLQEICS
Protocol: We utilized the LanthaScreen TR-FRET CAR Coactivator Binding Assay Kit, goat (Thermo Fisher Scientific, Cat. No. PV4836), which includes GST-tagged human CAR LBD and a fluorescein-labeled PGC1α coactivator peptide. The assay was performed with slight modifications to the manufacturer’s protocol, as previously reported. […] The interaction with the PXR ligand-binding domain (LBD) was assessed using the LanthaScreen TR-FRET PXR Competitive Binding Assay (Thermo Fisher Scientific, PV4839), as previously described. This assay quantifies the ability of test compounds to displace a fluorescent PXR ligand from the receptor. Fluorescence readings were taken on a Synergy 2 Multi-Mode Microplate Reader (BioTek, Winooski, VT). The half-maximal inhibitory concentration (IC50) for PXR LBD was calculated from at least eight data points using GraphPad Prism software.

PXR [8] = test system: PXR; design: method as in not given; settings: ref not given, cited from earlier work
wild-type PXR LBD = target: T4, wild-type PXR LBD (Homo sapiens, UniProt O75469); experiment: Mammalian two-hybrid assay, wt-PXR LBD with SRC-1-VP16 in HepG2; format: cell-based; settings: MI891 at 10 μM
T4 construct: HepG2 cells were cotransfected with a GAL4-hPXR LBD construct and pSCR1-VP16 construct; expressed in transfected cells; host or cells: HepG2
T4 sequence (O75469 146-433 limits assumed): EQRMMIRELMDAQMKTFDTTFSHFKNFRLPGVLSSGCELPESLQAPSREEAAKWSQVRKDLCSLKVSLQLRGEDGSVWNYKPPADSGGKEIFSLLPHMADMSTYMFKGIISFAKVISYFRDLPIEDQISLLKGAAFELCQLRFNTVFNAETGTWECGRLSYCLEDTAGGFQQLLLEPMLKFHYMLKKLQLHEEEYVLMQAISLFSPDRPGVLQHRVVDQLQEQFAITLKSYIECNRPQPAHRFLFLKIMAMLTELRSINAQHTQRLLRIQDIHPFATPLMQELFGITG
Text: (§2) Additionally, the GAL4-PXR-LBD triple mutants (S247W/C284W/S208W) construct and wild-type GAL4-wtPXR vector were used for PXR LBD mutant functional two-hybrid assay as we described before. In the mammalian two-hybrid assay, HepG2 cells were cotransfected with a GAL4-hPXR LBD construct and pSCR1-VP16 construct. Renilla luciferase vector was used for the normalization of firefly luciferase activity to Renilla luciferase activity.

[9] = target: T5, triple mutant (S208W/S247W/C284W) PXR LBD (Homo sapiens, UniProt O75469, C284W/S208W/S247W); experiment: Mammalian two-hybrid assay, obstructed triple mutant PXR LBD with SRC-1-VP16 in HepG2; format: cell-based
T5 construct: the GAL4-PXR-LBD triple mutants (S247W/C284W/S208W) construct; expressed in transfected cells; host or cells: HepG2
T5 sequence (O75469 146-433 S208W/S247W/C284W limits assumed): T4 sequence (O75469 146-433 limits assumed) with S63W, S102W, C139W
Text: as §2

PXR [10] = test system: PXR; design: method as in not given; settings: read-out: Ki printed beside SPA70 in Figure 6A; ref not given; cited from earlier work
HepaRG cells = experiment: RT-qPCR gene expression in differentiated HepaRG cells; format: cell-based, human; settings: 48 h
Protocol: HepaRG cells (Sigma-Aldrich/Merck) were cultivated and differentiated on 12-well plates. Seeded at 26,600 cells/cm^2, they were maintained in William’s medium with supplements. After 14 days, differentiation into hepatocyte-like cells was induced using 1.5% DMSO for another 14 days.
RT-qPCR was utilized to investigate gene expression in HepaRG and PHH. Total RNA was extracted from these cells using the phenol–chloroform method. The concentration of the isolated RNA was then measured using a Nanodrop 1000 spectro-photometer (Thermo Fisher Scientific).
Following RNA isolation, reverse transcription was performed to convert RNA into complementary DNA (cDNA). This step was carried out using the High-capacity cDNA reverse transcription kit (Cat. No. 4374966, ThermoFisher Scientific). The resulting cDNA served as the template for subsequent qPCR reactions.
The qPCR reactions were conducted on the QuantStudio 6 Flex Real-Time PCR System (ThermoFisher Scientific, Waltham, Mas-sachusetts). For these reactions, TaqMan Universal master mix II (Cat. No. 4440047, ThermoFisher Scientific) and TaqMan assays (FAM) utilized in this study are detailed in the Supporting Information. To quantify gene expression, the cycle threshold (Ct) values of the target genes were normalized to the Ct values of reference genes HPRT1 or GAPDH (HepaRG) or TBP (PHH). The normalized values were then expressed as fold changes (2−ΔΔCt) relative to the DMSO control at the specified time points, with the control set as 1.

| half-life at 5 μM [1] [min] | microsomal CLint at 5 μM [1] [µL/min/mg] | half-life at 5 μM [2] [min] | microsomal CLint at 5 μM ([2]; mouse microsomes, read-out: Microsomal clearance CLint (μl/min/mg), mouse) [µL/min/mg] | half-life [3] [min] | IC50 (PXR [4]) [µM] | half-life [6] [min] | CAR TR-FRET (EC50, μM) (human CAR LBD [7]) | CYP2B6 gene expression (HepaRG cells; MI891 5 μM, SPA70 5 μM) | CYP3A4 mRNA expression (HepaRG cells; alone or with rifampicin (5 μM), concentration-dependent) | Compound | EC50 (human CAR LBD [5]) [µM] | IC50 (PXR [8]; quoted in the Introduction, read-out: PXR antagonist IC50) [µM] | effect on wt-PXR-LBD/SRC1-VP16 two-hybrid (wild-type PXR LBD) | activation of obstructed mutated PXR LBD two-hybrid [9] | Ki (PXR [10]) [µM] | IC50 (PXR [8]; read-out: IC50 printed beside SPA70 in Figure 6A) [µM] |
| --- | --- | --- | --- | --- | --- | --- | --- | --- | --- | --- | --- | --- | --- | --- | --- | --- |
| 50 ± 4 | 28 ± 2 | 8 | 168 ± 8 | > 120 | 12.4 ± 6 | > 120 | nb | – | – | NC(=O)c1cc(Cn2cc(-c3c(-c4ccc(Cl)cc4)nc4c(F)cccn34)nn2)ccc1Cl [Compound 8, 2-Chloro-5-((4-(2-(4-chlorophenyl)-8-fluoroimidazo[1,2-a]pyridin-3-yl)-1H-1,2,3-triazol-1-yl)methyl)benzamide] | 4.14 ± 0.2 | – | – | – | – | – |
| 55 ± 9 | 26 ± 4 | > 45 | – | > 120 | 6.46 ± 0.6 | > 120 | nb | – | – | NC(=O)c1cc(Cn2cc(-c3c(-c4ccc(Cl)cc4)nc4ccc(F)cn34)nn2)ccc1Cl [Compound 10, 2-Chloro-5-((4-(2-(4-chlorophenyl)-6-fluoroimidazo[1,2-a]pyridin-3-yl)-1H-1,2,3-triazol-1-yl)methyl)benzamide] | > 10 | – | – | – | – | – |
| – | – | – | – | – | – | – | – | – | – | CCC[C@H](CC)Oc1ccc(C(=O)OC)cc1NC(=O)c1nnn(-c2cc(OC)ccc2OC)c1C [SJPYT-331] | – | 0.0071 ± 0.0008 | – | – | – | – |
| – | – | – | – | – | – | – | – | downregulated | CYP3A4 mRNA suppression | COc1ccc(OC)c(-n2nnc(S(=O)(=O)c3ccc(C(C)(C)C)cc3)c2C)c1 [SPA70, reference compound] | – | – | activated the wild-type (wt) PXR LBD construct | Neither MI891 nor SPA70 activated the obstructed mutated PXR LBD | […] | […] |
